Measured values reported in ChEMBL document CHEMBL4834472 (J Med Chem, 2021).
Active and inactive are the calls of the source. The rule behind the calls is not given here.

What was measured:
CDK2/Cyclin A1 = CDK2/Cyclin A1 (Homo sapiens, UniProt P24941); format: protein-complex assay
Description: Inhibition of CDK2/Cyclin A1 (unknown origin) at 1 uM using histone H1 as substrate preincubated for 20 mins followed by 33P-ATP addition and measured after 2 hrs by filter binding method

[1] = biological target: Receptor-type tyrosine-protein kinase FLT3 (Homo sapiens, UniProt P36888, ITD)
[2] = biological target: Cyclin-dependent kinase 1/cyclin B1 (Homo sapiens, UniProt P06493); experiment: Inhibition of CDK1/cyclin B1 (unknown origin) in presence of [32P]gammaATP by image analyser; format: protein-complex assay
Sequence of Cyclin-dependent kinase 1/cyclin B1 (P06493 whole entry): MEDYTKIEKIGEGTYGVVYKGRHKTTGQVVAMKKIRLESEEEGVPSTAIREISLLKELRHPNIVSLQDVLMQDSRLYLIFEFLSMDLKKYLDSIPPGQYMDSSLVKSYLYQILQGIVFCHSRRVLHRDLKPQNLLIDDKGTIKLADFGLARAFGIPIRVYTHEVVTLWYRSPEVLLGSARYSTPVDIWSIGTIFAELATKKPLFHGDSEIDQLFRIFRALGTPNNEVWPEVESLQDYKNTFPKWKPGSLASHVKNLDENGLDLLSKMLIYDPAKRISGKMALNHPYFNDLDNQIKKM
Sequence of Cyclin-dependent kinase 1/cyclin B1 (P14635 whole entry, further chain): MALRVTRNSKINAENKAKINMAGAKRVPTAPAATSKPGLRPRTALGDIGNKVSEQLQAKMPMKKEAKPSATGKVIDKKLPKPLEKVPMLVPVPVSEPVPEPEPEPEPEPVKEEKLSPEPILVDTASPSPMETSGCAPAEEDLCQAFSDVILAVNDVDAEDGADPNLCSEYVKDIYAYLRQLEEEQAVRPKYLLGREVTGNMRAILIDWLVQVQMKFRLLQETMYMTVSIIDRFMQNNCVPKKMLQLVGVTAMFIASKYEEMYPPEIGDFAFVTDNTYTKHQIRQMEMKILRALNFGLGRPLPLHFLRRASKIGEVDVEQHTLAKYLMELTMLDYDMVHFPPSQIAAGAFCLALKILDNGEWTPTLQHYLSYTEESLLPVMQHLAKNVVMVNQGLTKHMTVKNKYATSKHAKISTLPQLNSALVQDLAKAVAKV

[3] = biological target: Cyclin-dependent kinase 2/cyclin E1 (Homo sapiens, UniProt P24941); experiment: Inhibition of CDK2/cyclin E1 (unknown origin) in presence of [32P]gammaATP by image analyser; format: protein-complex assay
CDK2/Cyclin A2 = CDK2/Cyclin A2 (Homo sapiens, UniProt P24941); experiment: Inhibition of CDK2/cyclin A2 (unknown origin) in presence of [32P]gammaATP by image analyser; format: protein-complex assay
[4] = biological target: Cyclin-dependent kinase 4/cyclin D1 (Homo sapiens, UniProt P11802); experiment: Inhibition of CDK4/cyclin D1 (unknown origin) in presence of [32P]gammaATP by image analyser; format: protein-complex assay
Sequence of Cyclin-dependent kinase 4/cyclin D1 (P11802 whole entry): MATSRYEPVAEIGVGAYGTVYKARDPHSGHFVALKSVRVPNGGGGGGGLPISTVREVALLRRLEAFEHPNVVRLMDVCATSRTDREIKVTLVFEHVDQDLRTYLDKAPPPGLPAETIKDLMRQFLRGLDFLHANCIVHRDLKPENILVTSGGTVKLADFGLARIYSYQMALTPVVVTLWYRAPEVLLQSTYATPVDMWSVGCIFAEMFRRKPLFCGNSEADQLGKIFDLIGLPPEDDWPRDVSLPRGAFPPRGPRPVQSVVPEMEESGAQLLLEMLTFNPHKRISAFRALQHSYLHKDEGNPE
Sequence of Cyclin-dependent kinase 4/cyclin D1 (P24385 whole entry, further chain): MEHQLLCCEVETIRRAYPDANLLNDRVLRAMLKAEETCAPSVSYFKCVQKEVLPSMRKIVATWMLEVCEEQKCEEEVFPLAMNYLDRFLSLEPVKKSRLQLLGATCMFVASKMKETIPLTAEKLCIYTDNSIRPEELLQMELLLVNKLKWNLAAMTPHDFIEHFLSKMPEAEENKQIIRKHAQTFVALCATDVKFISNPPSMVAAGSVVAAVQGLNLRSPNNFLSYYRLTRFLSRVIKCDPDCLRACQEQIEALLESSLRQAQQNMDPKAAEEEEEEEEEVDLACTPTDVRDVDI

CDK9/cyclin T1 = CDK9/cyclin T1 (Homo sapiens, UniProt P50750); experiment: Inhibition of CDK9/cyclin T1 (unknown origin) in presence of [32P]gammaATP by image analyser; format: protein-complex assay
Sequence of CDK9/cyclin T1 (O60563 whole entry): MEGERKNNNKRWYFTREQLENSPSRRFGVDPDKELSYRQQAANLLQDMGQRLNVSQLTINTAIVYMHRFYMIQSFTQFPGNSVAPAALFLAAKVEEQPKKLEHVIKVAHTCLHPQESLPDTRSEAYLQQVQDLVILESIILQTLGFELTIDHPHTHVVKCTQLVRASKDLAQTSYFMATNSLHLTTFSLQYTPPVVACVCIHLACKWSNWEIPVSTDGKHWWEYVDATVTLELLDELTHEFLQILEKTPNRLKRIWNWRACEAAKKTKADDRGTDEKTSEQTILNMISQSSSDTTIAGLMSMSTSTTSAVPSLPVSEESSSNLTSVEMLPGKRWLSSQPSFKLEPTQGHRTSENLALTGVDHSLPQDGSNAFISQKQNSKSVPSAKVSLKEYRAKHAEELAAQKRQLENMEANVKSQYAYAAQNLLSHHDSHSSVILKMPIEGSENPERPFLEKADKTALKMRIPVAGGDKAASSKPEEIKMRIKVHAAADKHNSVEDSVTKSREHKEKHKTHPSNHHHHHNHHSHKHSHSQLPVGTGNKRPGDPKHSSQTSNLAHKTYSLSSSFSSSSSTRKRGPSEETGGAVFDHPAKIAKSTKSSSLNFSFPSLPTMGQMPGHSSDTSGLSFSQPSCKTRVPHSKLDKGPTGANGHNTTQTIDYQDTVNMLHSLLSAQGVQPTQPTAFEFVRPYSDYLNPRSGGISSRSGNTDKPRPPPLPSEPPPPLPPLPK
Sequence of CDK9/cyclin T1 (P50750 whole entry): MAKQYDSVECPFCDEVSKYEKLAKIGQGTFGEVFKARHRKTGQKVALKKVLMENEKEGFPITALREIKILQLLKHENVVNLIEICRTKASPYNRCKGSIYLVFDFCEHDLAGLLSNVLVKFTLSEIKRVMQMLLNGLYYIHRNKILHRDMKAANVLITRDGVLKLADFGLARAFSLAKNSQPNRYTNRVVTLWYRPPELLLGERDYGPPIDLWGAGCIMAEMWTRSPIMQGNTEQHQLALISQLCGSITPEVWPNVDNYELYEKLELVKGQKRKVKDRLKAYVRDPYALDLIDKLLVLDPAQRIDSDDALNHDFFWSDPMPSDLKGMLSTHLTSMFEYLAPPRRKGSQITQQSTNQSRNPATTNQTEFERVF

[5] = biological target: T1, Receptor-type tyrosine-protein kinase FLT3 (Homo sapiens, UniProt P36888); experiment: Inhibition of wild type FLT3 (unknown origin) using AGLT peptide substrate in presence of [32P]gammaATP by image analyser
T1 sequence (P36888 whole entry): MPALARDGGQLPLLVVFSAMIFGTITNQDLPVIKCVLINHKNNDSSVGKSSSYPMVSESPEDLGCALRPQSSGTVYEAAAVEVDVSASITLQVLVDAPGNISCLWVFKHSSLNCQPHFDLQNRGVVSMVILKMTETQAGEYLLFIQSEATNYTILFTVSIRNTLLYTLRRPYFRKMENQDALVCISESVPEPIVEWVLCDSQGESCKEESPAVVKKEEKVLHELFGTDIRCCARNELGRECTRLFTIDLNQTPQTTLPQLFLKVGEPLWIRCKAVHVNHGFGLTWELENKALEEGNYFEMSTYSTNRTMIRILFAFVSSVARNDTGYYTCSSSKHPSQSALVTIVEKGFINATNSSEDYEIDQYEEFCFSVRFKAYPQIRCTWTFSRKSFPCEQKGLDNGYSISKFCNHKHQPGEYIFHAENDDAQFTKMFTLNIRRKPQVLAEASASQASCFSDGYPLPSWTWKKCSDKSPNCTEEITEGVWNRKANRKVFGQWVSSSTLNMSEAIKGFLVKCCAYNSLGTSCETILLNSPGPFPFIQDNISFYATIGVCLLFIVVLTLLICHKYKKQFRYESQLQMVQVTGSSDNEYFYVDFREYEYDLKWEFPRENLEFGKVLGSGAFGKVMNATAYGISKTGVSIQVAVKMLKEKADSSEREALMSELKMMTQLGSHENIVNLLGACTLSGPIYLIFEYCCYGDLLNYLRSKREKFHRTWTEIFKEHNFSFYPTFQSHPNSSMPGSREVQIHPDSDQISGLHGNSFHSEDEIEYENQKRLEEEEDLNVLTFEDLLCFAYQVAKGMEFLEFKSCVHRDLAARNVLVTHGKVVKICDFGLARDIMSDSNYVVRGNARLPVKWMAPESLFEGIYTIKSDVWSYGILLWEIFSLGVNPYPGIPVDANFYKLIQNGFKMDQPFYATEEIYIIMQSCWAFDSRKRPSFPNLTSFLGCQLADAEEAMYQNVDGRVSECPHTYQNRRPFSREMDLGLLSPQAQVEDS

MOLM-13 = experiment: Antiproliferative activity against human MOLM-13 cells assessed as cell death measured after 72 hrs by resazurin dye based assay; format: functional; details: MOLM-13, 72 h
MOLM-14 [6] = experiment: Antiproliferative activity against human MOLM-14 cells assessed as cell death measured after 72 hrs by resazurin dye based assay; format: functional; details: MOLM-14, 72 h
MOLM-14 [7] = experiment: Antiproliferative activity against human MOLM-14 cells harboring D835Y mutant assessed as cell death measured after 72 hrs by resazurin dye based assay; format: functional; details: MOLM-14, 72 h
MOLM-14 [8] = experiment: Antiproliferative activity against human MOLM-14 cells harboring F691L mutant assessed as cell death measured after 72 hrs by resazurin dye based assay; format: functional; details: MOLM-14, 72 h
SEM cells = experiment: Antiproliferative activity against human SEM cells assessed as cell death measured after 72 hrs by resazurin dye based assay; format: functional
CCRF-CEM = experiment: Antiproliferative activity against human CCRF-CEM cells assessed as cell death measured after 72 hrs by resazurin dye based assay; format: functional
THP-1 = experiment: Antiproliferative activity against human THP-1 cells assessed as cell death measured after 72 hrs by resazurin dye based assay; format: functional; details: THP-1, 72 h
U-937 = experiment: Antiproliferative activity against human U-937 cells assessed as cell death measured after 72 hrs by resazurin dye based assay; format: functional; details: U-937, 72 h
BaF3 [9] = experiment: Antiproliferative activity against mouse BaF3 cells assessed as cell death measured after 72 hrs by resazurin dye based assay; format: functional; details: BaF3, 72 h
BaF3 [10] = experiment: Antiproliferative activity against mouse BaF3 cells harboring FLt3 ITD mutant assessed as cell death measured after 72 hrs by resazurin dye based assay; format: functional; details: BaF3, 72 h
[11] = biological target: Receptor-type tyrosine-protein kinase FLT3 (Homo sapiens) (UniProt P36888); experiment: Inhibition of FLT3 autophosphorylation in human MV4-11 cells at 20 to 100 nM incubated for 1 hrs by Western blot analysis; format: cell-based; details: dose 20-100 nM
[12] = biological target: Receptor-type tyrosine-protein kinase FLT3 (Homo sapiens) (UniProt P36888); experiment: Inhibition of FLT3 in human MV4-11 cells assessed as STAT5 phosphorylation at Y694 at 20 to 100 nM incubated for 1 hrs by Western blot analysis; format: cell-based; details: dose 20-100 nM
[13] = biological target: Receptor-type tyrosine-protein kinase FLT3 (Homo sapiens) (UniProt P36888); experiment: Inhibition of FLT3 in human MV4-11 cells assessed as ERK1/2 phosphorylation at 20 to 100 nM incubated for 1 hrs by Western blot analysis; format: cell-based; details: dose 20-100 nM
MV4-11 [14] = experiment: Induction of apoptosis in human MV4-11 cells assessed as caspase 3 activation using fluorescent substrate Ac-DEVD-AMC at 100 nM incubated for 24 hrs by Western blot analysis; format: functional, cell-based
MV4-11 [15] = experiment: Induction of apoptosis in human MV4-11 cells assessed as caspase 7 activation using fluorescent substrate Ac-DEVD-AMC at 100 nM incubated for 24 hrs by Western blot analysis; format: functional, cell-based
MV4-11 [16] = experiment: Induction of apoptosis in human MV4-11 cells assessed as increase in cleaved PARP1 level at 100 nM incubated for 24 hrs by Western blot analysis; format: functional, cell-based
MV4-11 [17] = experiment: Induction of apoptosis in human MV4-11 cells assessed as decrease in MCL1 level at 100 nM incubated for 24 hrs by Western blot analysis; format: functional, cell-based
MV4-11 [18] = experiment: Induction of apoptosis in human MV4-11 cells assessed as effect on Bcl2 level at 100 nM incubated for 24 hrs by Western blot analysis; format: functional, cell-based
K562 = experiment: cells; details: Homo sapiens, K562, 72 h
Description: Antiproliferative activity against human K562 cells assessed as cell death measured after 72 hrs by resazurin dye based assay

MV4-11 [19] = experiment: cells; details: Homo sapiens, MV4-11, 72 h
Description: Antiproliferative activity against human MV4-11 cells assessed as cell death measured after 72 hrs by resazurin dye based assay

SMILES: Fc1cc2[nH]ncc2c2c3c(c(-c4c[nH]nc4C(F)(F)F)nc12)C1CCC3C1 (stereo not drawn)
- IC50 (CDK2/Cyclin A1): 49 nM
- IC50 [1]: 16 nM
- IC50 [2]: 72 nM
- IC50 [3]: 31 nM
- IC50 (CDK2/Cyclin A2): 49 nM
- IC50 [4]: > 1000 nM
- IC50 (CDK9/cyclin T1): 980 nM
- IC50 [5]: 28 nM
- IC50 (MOLM-13): 6 nM
- IC50 (MOLM-14 [6]): 24 nM
- IC50 (MOLM-14 [7]): 13 nM
- IC50 (MOLM-14 [8]): 65 nM
- IC50 (SEM cells): 150 nM
- IC50 (CCRF-CEM): 8120 nM
- IC50 (THP-1): 3150 nM
- IC50 (U-937): 2240 nM
- IC50 (BaF3 [9]): 5820 nM
- IC50 (BaF3 [10]): 35 nM
- inhibition [11]: Active
- inhibition [12]: Active
- inhibition [13]: inactive
- Activity (MV4-11 [14]): Active
- Activity (MV4-11 [15]): Active
- Activity (MV4-11 [16]): Active
- Activity (MV4-11 [17]): Active
- Activity (MV4-11 [18]): Active
- IC50 (K562): 7590 nM
- IC50 (MV4-11 [19]): 49 nM

SMILES: Fc1cc2[nH]ncc2c2c3c(c(-c4cn[nH]c4)nc12)CCCC3
- IC50 (CDK2/Cyclin A1): 39 nM
- IC50 [1]: 43 nM
- IC50 [2]: 119 nM
- IC50 [3]: 55 nM
- IC50 (CDK2/Cyclin A2): 39 nM
- IC50 [4]: > 1000 nM
- IC50 (CDK9/cyclin T1): 196 nM
- IC50 [5]: 21 nM
- IC50 (MOLM-13): 49 nM
- IC50 (MOLM-14 [6]): 79 nM
- IC50 (MOLM-14 [7]): 46 nM
- IC50 (MOLM-14 [8]): 50 nM
- IC50 (SEM cells): 1050 nM
- IC50 (CCRF-CEM): 5480 nM
- IC50 (THP-1): 1900 nM
- IC50 (U-937): 3170 nM
- IC50 (BaF3 [9]): 15100 nM
- IC50 (BaF3 [10]): 814 nM
- IC50 (K562): 3280 nM
- IC50 (MV4-11 [19]): 22 nM

SMILES: Cc1noc(C)c1-c1nc2ccc3[nH]ncc3c2c2c1CCCC2
- IC50 (CDK2/Cyclin A1): 555 nM
- IC50 [1]: 2020 nM
- IC50 (K562): 30800 nM
- IC50 (MV4-11 [19]): 880 nM

SMILES: [O-][S+]1CCc2c(c(-c3c[nH]nc3C(F)(F)F)nc3ccc4[nH]ncc4c23)C1 (stereo not drawn)
- IC50 (CDK2/Cyclin A1): 40 nM
- IC50 [1]: 17 nM
- IC50 (K562): 8600 nM
- IC50 (MV4-11 [19]): 24 nM

SMILES: FC(F)(F)c1n[nH]cc1-c1nc2c(Br)cc3[nH]ncc3c2c2c1CCCC2
- IC50 (CDK2/Cyclin A1): 10800 nM
- IC50 [1]: > 20000 nM
- IC50 (K562): > 100000 nM
- IC50 (MV4-11 [19]): 36300 nM

SMILES: O=S1(=O)CCc2c(c(-c3c[nH]nc3C(F)(F)F)nc3ccc4[nH]ncc4c23)C1
- IC50 (CDK2/Cyclin A1): 231 nM
- IC50 [1]: 799 nM
- IC50 (K562): > 100000 nM
- IC50 (MV4-11 [19]): 765 nM

SMILES: CC(C)c1nn(C)cc1-c1nc2ccc3[nH]ncc3c2c2c1CCCC2
- IC50 (CDK2/Cyclin A1): 1450 nM
- IC50 [1]: 3840 nM
- IC50 (K562): 77500 nM
- IC50 (MV4-11 [19]): 1400 nM

SMILES: FC(F)(F)c1n[nH]cc1-c1nc2ccc3[nH]nc(I)c3c2c2c1CCCC2
- IC50 (CDK2/Cyclin A1): 63 nM
- IC50 [1]: 21 nM
- IC50 (K562): 40100 nM
- IC50 (MV4-11 [19]): 1260 nM

SMILES: FC(F)(F)c1n[nH]cc1-c1nc2ccc3[nH]nnc3c2c2c1CCCC2
- IC50 (CDK2/Cyclin A1): 1260 nM
- IC50 [1]: 408 nM
- IC50 (K562): 87800 nM
- IC50 (MV4-11 [19]): 400 nM

SMILES: Cn1cc(-c2nc3ccc4[nH]ncc4c3c3c2CCCC3)c(C(F)(F)F)n1
- IC50 (CDK2/Cyclin A1): 556 nM
- IC50 [1]: 549 nM
- IC50 (K562): 10400 nM
- IC50 (MV4-11 [19]): 500 nM

SMILES: FC(F)(F)c1n[nH]cc1-c1nc2ccc3[nH]ncc3c2c2c1CC(N1CCOCC1)CC2 (stereo not drawn)
- IC50 (CDK2/Cyclin A1): 901 nM
- IC50 [1]: 16 nM
- IC50 (K562): 33000 nM
- IC50 (MV4-11 [19]): 550 nM

SMILES: O=C(O)C1CCc2c(c(-c3c[nH]nc3C(F)(F)F)nc3ccc4[nH]ncc4c23)C1 (stereo not drawn)
- IC50 (CDK2/Cyclin A1): 1440 nM
- IC50 [1]: 563 nM
- IC50 (K562): > 100000 nM
- IC50 (MV4-11 [19]): 20000 nM

SMILES: CC(=O)NC1CCc2c(c(-c3c[nH]nc3C(F)(F)F)nc3ccc4[nH]ncc4c23)C1 (stereo not drawn)
- IC50 (CDK2/Cyclin A1): 320 nM
- IC50 [1]: 20 nM
- IC50 (K562): > 100000 nM
- IC50 (MV4-11 [19]): 920 nM

SMILES: CCc1c(C)c(-c2c[nH]nc2C(F)(F)F)nc2ccc3[nH]ncc3c12
- IC50 (CDK2/Cyclin A1): 46 nM
- IC50 [1]: 4 nM
- IC50 (K562): 39100 nM
- IC50 (MV4-11 [19]): 84 nM

SMILES: FC(F)(F)c1n[nH]cc1-c1nc2ccc3sncc3c2c2c1CCCC2
- IC50 (CDK2/Cyclin A1): 5160 nM
- IC50 [1]: 8490 nM
- IC50 (K562): 56800 nM
- IC50 (MV4-11 [19]): 7350 nM

SMILES: Nc1ccc(-c2nc3ccc4[nH]ncc4c3c3c2CCCC3)cc1C(F)(F)F
- IC50 (CDK2/Cyclin A1): 237 nM
- IC50 [1]: 3120 nM
- IC50 (K562): 21900 nM
- IC50 (MV4-11 [19]): 2940 nM

SMILES: FC(F)(F)c1ccc(-c2cc(-c3c[nH]nc3C(F)(F)F)nc3ccc4[nH]ncc4c23)cc1
- IC50 (CDK2/Cyclin A1): 8240 nM
- IC50 [1]: > 20000 nM
- IC50 (K562): > 100000 nM
- IC50 (MV4-11 [19]): > 100000 nM
